Measurements reported in patent US8598193B2, “Polycyclic agents for the treatment of respiratory syncytial virus infections” (Biota Scientific Management Pty Ltd., priority 2003, dated 2013).
≈ marks a conversion by molar mass, not a printed value.

These molecules were tested on RSV A2 (assay: RSV antiviral cytopathic effect (CPE) assay, MTT readout). Settings: human respiratory syncytial virus, HEp-2, 120 h, read-out: Activity Range (RSV A2 antiviral EC50), compounds of Table 2.
Assay type: cell-based
Protocol: Method Q: RSV Antiviral Assay Protocol
Compounds of the invention were tested for their antiviral activity against respiratory syncytial virus. Cytopathic effect (CPE) assays were performed essentially as described in the literature (see for example Watanabe et al, 1. Virological Methods, 1994, 48, 257). Serial dilutions of the test compounds were made in assay medium. HEp2 cells (1.0×10^4 cells/well) were infected with RSV at a low multiplicity of infection (e.g. RSV A2 at an moi of 0.01) and 100 μL added to cultures assessing antiviral activity and cells without virus added to those assessing compound cytotoxicity. Assays were incubated for approximately 5 days at 37° C. in a 5% CO2 atmosphere. The extent of CPE was determined via metabolism of the vital dye 3-(4,5-dimethylthiaxol-2-yl)-2,5-diphenyltetrazolium bromide (MTT). A 3 mg/ml stock of MTT was made in assay medium and 100 μL added to each well, taking the final MTT concentration to […]. After 2 hours incubation at 37° C., the media-MTT solution was removed and 200 μL of isopropanol was added to dissolve the vital dye crystals. Plates were shaken and the absorbance read at 540 nm. The compound concentrations that inhibited CPE by 50% (EC50) and developed cytotoxicity (CC50) were calculated using an Excel curve fitting program.

Row | SMILES | EC50 [µg/mL]
1 | Cc1nnsc1C(=O)N1CCN2C(=O)c3ccccc3C21c1ccc(Cl)cc1 (stereo not shown) [Compound 184] | < 0.1

Same assay, conditions: human respiratory syncytial virus, HEp-2, 120 h; RSV A2 in HEp2 cells, CPE assay, MTT, approx. 5 days; read-out: Activity Range (RSV A2 antiviral EC50), compounds of Table 2

Row | SMILES | EC50 [µg/mL]
2 | Cc1ccc(C23c4ccccc4C(=O)N2CCN3C(=O)NCc2ccccc2)cc1 (stereo not shown) [Compound 82] | 0.25 to 1 (≈ 0.629 to 2.52 µM)
3 | COc1ccc(NC(=O)N2CCN3C(=O)c4ccccc4C23c2ccc(Cl)cc2)cc1 (stereo not shown) [Compound 85] | 0.1 to 0.25 (≈ 0.23 to 0.576 µM)
4 | COc1ccc(NC(=O)N2CCN3C(=O)c4ccccc4C23c2ccc(C)cc2)cc1 (stereo not shown) [Compound 86] | 0.1 to 0.25 (≈ 0.242 to 0.605 µM)
5 | O=C(NCc1ccc(F)cc1)N1CCN2C(=O)c3ccccc3C12c1ccc(Cl)cc1 (stereo not shown) [Compound 87] | 0.1 to 0.25 (≈ 0.229 to 0.574 µM)
6 | Cc1ccc(C23c4ccccc4C(=O)N2CCN3C(=O)NCc2ccc(F)cc2)cc1 (stereo not shown) [Compound 88] | < 0.1
7 | CCC(=O)N1CCN2C(=O)c3ccccc3C12c1ccc(C)cc1 (stereo not shown) [Compound 117] | 0.25 to 1 (≈ 0.78 to 3.12 µM)
8 | O=C(c1ccc(F)cc1)N1CCN2C(=O)c3ccccc3C12c1cccc(Cl)c1 (stereo not shown) [Compound 144] | 0.1 to 0.25 (≈ 0.246 to 0.614 µM)
9 | Cc1ccc(CNC(=O)N2CCN3C(=O)c4ccccc4C23c2ccc(C)cc2)cc1 (stereo not shown) [Compound 178] | 0.25 to 1 (≈ 0.608 to 2.43 µM)
10 | COc1ccc(CNC(=O)N2CCN3C(=O)c4ccccc4C23c2ccc(C)cc2)cc1 (stereo not shown) [Compound 179] | 0.25 to 1 (≈ 0.585 to 2.34 µM)
11 | COc1ccc(CNC(=O)N2CCN3C(=O)c4ccccc4C23c2ccc(Cl)cc2)cc1 (stereo not shown) [Compound 180] | 0.25 to 1 (≈ 0.558 to 2.23 µM)
12 | O=C(c1ccno1)N1CCN2C(=O)c3ccccc3C12c1ccc(Cl)cc1 (stereo not shown) [Compound 183] | 0.1 to 0.25 (≈ 0.263 to 0.658 µM)
13 | Cc1nc(C(=O)N2CCN3C(=O)c4ccccc4C23c2ccc(Cl)cc2)cs1 (stereo not shown) [Compound 188] | 0.25 to 1 (≈ 0.61 to 2.44 µM)
14 | CCc1ccc(C23c4ccccc4C(=O)N2CCN3C(=O)Cc2ccc(OC)cc2)cc1 (stereo not shown) [Compound 190] | 0.25 to 1 (≈ 0.586 to 2.34 µM)
15 | CCc1ccc(C23c4ccccc4C(=O)N2CCN3C(=O)c2ccc(F)cc2)cc1 (stereo not shown) [Compound 191] | < 0.1
16 | CCC(=O)N1CCN2C(=O)c3ccccc3C12c1ccc(CC)cc1 (stereo not shown) [Compound 192] | 0.25 to 1 (≈ 0.748 to 2.99 µM)
17 | CCCc1ccc(C23c4ccccc4C(=O)N2CCN3C(=O)CC)cc1 (stereo not shown) [Compound 199] | 0.25 to 1 (≈ 0.717 to 2.87 µM)
18 | CCCc1ccc(C23c4ccccc4C(=O)N2CCN3C(=O)c2ccc(F)cc2)cc1 (stereo not shown) [Compound 200] | < 0.1
19 | CCCc1ccc(C23c4ccccc4C(=O)N2CCN3C(=O)Cc2ccc(OC)cc2)cc1 (stereo not shown) [Compound 201] | 0.25 to 1 (≈ 0.567 to 2.27 µM)
20 | CC(C)c1ccc(C23c4ccccc4C(=O)N2CCN3C(=O)c2ccc(F)cc2)cc1 (stereo not shown) [Compound 203] | 0.25 to 1 (≈ 0.603 to 2.41 µM)
21 | O=C(c1csc(-c2cccnc2)n1)N1CCN2C(=O)c3ccccc3C12c1ccc(Cl)cc1 (stereo not shown) [Compound 205] | < 0.1
22 | COc1ccc(CCC(=O)N2CCN3C(=O)c4ccccc4C23c2ccc(Cl)cc2)cc1 (stereo not shown) [Compound 211] | 0.25 to 1 (≈ 0.559 to 2.24 µM)
23 | CC(C)CC(=O)N1CCN2C(=O)c3ccccc3C12c1ccc(Cl)cc1 (stereo not shown) [Compound 214] | 0.25 to 1 (≈ 0.678 to 2.71 µM)

Row | SMILES | EC50 [µg/mL]
24 | O=C(CC1CCCC1)N1CCN2C(=O)c3ccccc3C12c1ccc(Cl)cc1 (stereo not shown) [Compound 216] | 0.25 to 1 (≈ 0.633 to 2.53 µM)
25 | O=C(CSCc1ccccc1)N1CCN2C(=O)c3ccccc3C12c1ccc(Cl)cc1 (stereo not shown) [Compound 217] | 0.1 to 0.25 (≈ 0.223 to 0.557 µM)
26 | O=C1c2ccccc2C2(c3ccc(Cl)cc3)N1CCN2C(=O)C1Cc2ccccc21 (stereo not shown) [Compound 218] | 0.25 to 1 (≈ 0.603 to 2.41 µM)
27 | O=C(c1ccco1)N1CCN2C(=O)c3ccccc3C12c1ccc(Cl)cc1 (stereo not shown) [Compound 219] | < 0.1
28 | O=C(c1cccs1)N1CCN2C(=O)c3ccccc3C12c1ccc(Cl)cc1 (stereo not shown) [Compound 224] | < 0.1
29 | O=C(CCCc1ccccc1)N1CCN2C(=O)c3ccccc3C12c1ccc(Cl)cc1 (stereo not shown) [Compound 227] | 0.25 to 1 (≈ 0.58 to 2.32 µM)
30 | O=C(CCCc1c[nH]c2ccccc12)N1CCN2C(=O)c3ccccc3C12c1ccc(Cl)cc1 (stereo not shown) [Compound 228] | 0.25 to 1 (≈ 0.532 to 2.13 µM)
31 | O=C(c1cccnc1)N1CCN2C(=O)c3ccccc3C12c1ccc(Cl)cc1 (stereo not shown) [Compound 230] | < 0.1
32 | O=C(c1ccc(F)cc1)N1CCN2C(=O)c3ccccc3C12c1ccc(F)cc1 (stereo not shown) [Compound 231] | 0.25 to 1 (≈ 0.64 to 2.56 µM)
33 | COc1ccc(CC(=O)N2CCN3C(=O)c4ccccc4C23c2ccc(F)cc2)cc1 (stereo not shown) [Compound 232] | 0.25 to 1 (≈ 0.6 to 2.4 µM)
34 | O=C(c1ccc(F)cc1)N1CCN2C(=O)c3ccccc3C12c1ccc(Br)cc1 (stereo not shown) [Compound 234] | < 0.1
35 | COc1ccc(CC(=O)N2CCN3C(=O)c4ccccc4C23c2ccc(Br)cc2)cc1 (stereo not shown) [Compound 235] | 0.1 to 0.25 (≈ 0.209 to 0.524 µM)
36 | CCC(=O)N1CCN2C(=O)c3ccccc3C12c1ccc(Br)cc1 (stereo not shown) [Compound 236] | 0.1 to 0.25 (≈ 0.26 to 0.649 µM)
37 | O=C(Oc1ccc(C23c4ccccc4C(=O)N2CCN3C(=O)c2ccc(F)cc2)cc1)c1ccc(F)cc1 (stereo not shown) [Compound 237] | 0.25 to 1 (≈ 0.49 to 1.96 µM)
38 | COCCOc1ccc(C23c4ccccc4C(=O)N2CCN3C(=O)c2ccc(F)cc2)cc1 (stereo not shown) [Compound 238] | 0.1 to 0.25 (≈ 0.224 to 0.56 µM)
39 | N#CCOc1ccc(C23c4ccccc4C(=O)N2CCN3C(=O)c2ccc(F)cc2)cc1 (stereo not shown) [Compound 239] | 0.1 to 0.25 (≈ 0.234 to 0.585 µM)
40 | O=C(Cc1cccc(Br)c1)N1CCN2C(=O)c3ccccc3C12c1ccc(Cl)cc1 (stereo not shown) [Compound 242] | 0.1 to 0.25 (≈ 0.208 to 0.519 µM)
41 | O=C(c1csnn1)N1CCN2C(=O)c3ccccc3C12c1ccc(Cl)cc1 (stereo not shown) [Compound 243] | < 0.1
42 | O=C1c2ccccc2C2(c3ccc(Cl)cc3)N1CCN2C(=O)c1cccc2c1OCCO2 (stereo not shown) [Compound 245] | 0.25 to 1 (≈ 0.559 to 2.24 µM)
43 | C=CCCC(=O)N1CCN2C(=O)c3ccccc3C12c1ccc(Cl)cc1 (stereo not shown) [Compound 250] | 0.25 to 1 (≈ 0.681 to 2.73 µM)
44 | N#CCCCOc1ccc(C23c4ccccc4C(=O)N2CCN3C(=O)c2ccc(F)cc2)cc1 (stereo not shown) [Compound 260] | 0.1 to 0.25 (≈ 0.22 to 0.549 µM)
45 | O=C(c1ccc(F)cc1)N1CCN2C(=O)c3ccccc3C12c1ccc(OCCCCl)cc1 (stereo not shown) [Compound 261] | 0.1 to 0.25 (≈ 0.215 to 0.538 µM)

Row | SMILES | EC50 [µg/mL]
46 | O=C(c1ccc(F)cc1)N1CCN2C(=O)c3ccccc3C12c1ccc(OCc2ccccc2)cc1 (stereo not shown) [Compound 262] | 0.1 to 0.25 (≈ 0.209 to 0.522 µM)
47 | Cc1noc(C)c1COc1ccc(C23c4ccccc4C(=O)N2CCN3C(=O)c2ccc(F)cc2)cc1 (stereo not shown) [Compound 263] | 0.1 to 0.25 (≈ 0.201 to 0.502 µM)
48 | O=C(c1ccc(F)cc1)N1CCN2C(=O)c3ccccc3C12c1ccc(OCCCCCl)cc1 (stereo not shown) [Compound 264] | 0.25 to 1 (≈ 0.522 to 2.09 µM)
49 | O=C(c1ccc(F)cc1)N1CCN2C(=O)c3ccccc3C12c1ccc(OCCCl)cc1 (stereo not shown) [Compound 265] | 0.1 to 0.25 (≈ 0.222 to 0.554 µM)
50 | NC(=O)COc1ccc(C23c4ccccc4C(=O)N2CCN3C(=O)c2ccc(F)cc2)cc1 (stereo not shown) [Compound 266] | 0.25 to 1 (≈ 0.561 to 2.24 µM)
51 | O=C(c1ccc(F)cc1)N1CCN2C(=O)c3ccccc3C12c1ccc(OCC2CC2)cc1 (stereo not shown) [Compound 267] | < 0.1
52 | CC(=O)COc1ccc(C23c4ccccc4C(=O)N2CCN3C(=O)c2ccc(F)cc2)cc1 (stereo not shown) [Compound 268] | 0.25 to 1 (≈ 0.562 to 2.25 µM)
53 | O=C(CSc1ccccn1)N1CCN2C(=O)c3ccccc3C12c1ccc(Cl)cc1 (stereo not shown) [Compound 299] | 0.25 to 1 (≈ 0.573 to 2.29 µM)
54 | O=C(CSc1ncccn1)N1CCN2C(=O)c3ccccc3C12c1ccc(Cl)cc1 (stereo not shown) [Compound 303] | 0.25 to 1 (≈ 0.572 to 2.29 µM)
55 | COc1ccc(CC(=O)N2CCN3C(=O)c4ccccc4C23c2ccc(C(F)(F)F)cc2)cc1 (stereo not shown) [Compound 304] | 0.25 to 1 (≈ 0.536 to 2.14 µM)
56 | CCC(=O)N1CCN2C(=O)c3ccccc3C12c1ccc(C(F)(F)F)cc1 (stereo not shown) [Compound 305] | 0.25 to 1 (≈ 0.668 to 2.67 µM)
57 | O=C(c1ccc(F)cc1)N1CCN2C(=O)c3ccccc3C12c1ccc(C(F)(F)F)cc1 (stereo not shown) [Compound 307] | 0.1 to 0.25 (≈ 0.227 to 0.568 µM)
58 | CCOc1ccc(C23c4ccccc4C(=O)N2CCN3C(=O)c2ccc(F)cc2)cc1 (stereo not shown) [Compound 308] | 0.1 to 0.25 (≈ 0.24 to 0.6 µM)
59 | CC(C)Oc1ccc(C23c4ccccc4C(=O)N2CCN3C(=O)c2ccc(F)cc2)cc1 (stereo not shown) [Compound 310] | 0.25 to 1 (≈ 0.581 to 2.32 µM)
60 | CCCOc1ccc(C23c4ccccc4C(=O)N2CCN3C(=O)c2ccc(F)cc2)cc1 (stereo not shown) [Compound 311] | 0.1 to 0.25 (≈ 0.232 to 0.581 µM)
61 | O=C(c1ccc(Cl)nc1)N1CCN2C(=O)c3ccccc3C12c1ccc(Cl)cc1 (stereo not shown) [Compound 312] | 0.25 to 1 (≈ 0.589 to 2.36 µM)
62 | O=C(c1ccc(F)nc1)N1CCN2C(=O)c3ccccc3C12c1ccc(F)cc1 (stereo not shown) [Compound 314] | 0.1 to 0.25 (≈ 0.256 to 0.639 µM)
63 | O=C(c1ccc(F)nc1)N1CCN2C(=O)c3ccccc3C12c1ccc(OCC2CC2)cc1 (stereo not shown) [Compound 316] | < 0.1
64 | Nc1ccc(C(=O)N2CCN3C(=O)c4ccccc4C23c2ccc(Cl)cc2)cn1 (stereo not shown) [Compound 319] | 0.25 to 1 (≈ 0.618 to 2.47 µM)
65 | NCCNc1ccc(C(=O)N2CCN3C(=O)c4ccccc4C23c2ccc(Cl)cc2)cn1 (stereo not shown) [Compound 320] | 0.25 to 1 (≈ 0.558 to 2.23 µM)
66 | O=C1c2ccccc2C2(c3ccc(Cl)cc3)N1CCN2C(=O)[C@@H]1CSC(c2cccs2)=N1 (stereo partly shown) [Compound 323] | 0.25 to 1 (≈ 0.521 to 2.08 µM)
67 | O=C(c1csc(-c2cccs2)n1)N1CCN2C(=O)c3ccccc3C12c1ccc(Cl)cc1 (stereo not shown) [Compound 324] | 0.1 to 0.25 (≈ 0.209 to 0.523 µM)
